# Measurements: paper PMC12606464, “Investigating NFE2L1 activators for targeted protein aggregate clearance: a follow-up study” (RSC Medicinal Chemistry, 2025)
# Marks after values point to notes of the source that are not given here. Peptide text beside a SMILES is read from it. * marks the point of attachment. Cbz = O=C(OCc1ccccc1)*
# What was measured:
# Type in all cases: cell-based, human
# IRE1/XBP1s = experiment: XBP1 endoplasmic reticulum stress reporter assay (CMV-XBP-GLuc); settings: Figure S5; for Mean 2 (mean of log2-transformed values, treatment; DMSO = 0): N = 3; for Mean diff, DMSO vs. treatment (log2-transformed values): Dunnett's multiple comparisons test
# Text: Next, we investigated whether the selected RUN compounds activate the NFE2L1 transcriptional program without triggering the unfolded protein response (UPR), a crucial cellular process induced by the accumulation of unfolded proteins in the endoplasmic reticulum (ER), potentially leading to ER stress. To monitor this, an alternative reporter was used to assess the activation of IRE1/XBP1s.[47] IRE1 is a bifunctional serine/threonine kinase and endoribonuclease embedded in the ER membrane, playing a central role in UPR signaling. Its RNase activity facilitates the splicing of X-box binding protein 1 (XBP1) mRNA. The spliced XBP1 acts as a transcription factor, promoting the re-establishment of ER homeostasis by upregulating genes involved in the ER-associated degradation (ERAD) pathway.[48–50] The reporter contains Gaussia luciferase positioned out of frame downstream of the XBP1 splice site, ensuring that active luciferase translation occurs only in the presence of ER stress.[51,52] Cells transfected with this reporter were treated with RUN compounds at 1, 5, and 10 μM, and luciferase activity was measured.
# Figure S5: Impact of RUN compounds on ER stress-induced activation of the XBP1 reporter.
# HEK293 cells were transfected with the CMV-XBP-GLuc reporter plasmid and allowed to stabilize overnight. Following stabilization, the cells were treated with MG132 or various concentrations of the test compounds (1, 2, 3, 5, 7.5, and 10 µM) for 16 hours. The Gaussia luciferase signal, which reflects XBP1 mRNA splicing, was adjusted based on cell viability as measured by the alamarBlue assay. Data are represented as Geomean ± GeoSD of three independent experiments ( n = 3. Statistical comparison of MG132 and RUN compounds vs DMSO and RUN compounds vs MG132 was performed on log2-transformed values using two-way repeated-measures ANOVA with Geisser –Greenhouse correction, followed by Dunnett’s multiple comparisons test with individual variances computed for each comparison. Results of the analysis are shown in Supplementary Table S15. […]
# GraphPad Prism (v 10.6.1).
# 2.8 XBP1-endoplasmic reticulum (ER) stress reporter assay
# HEK293 cells were seeded in 6-well plates and incubated for 24 hours before being transfected with a plasmid containing the CMV-XBP-Gluc reporter using Lipofectamine 2000.(4) After 6 hours, the transfected cells were subsequently transferred to 384-well plates, stabilized overnight, and treated with the proteasome inhibitor and ER stress inducer MG132 and/or various concentrations of RUN compounds (1, 5, and 10 µM) or vehicle (DMSO) for 16 hours. Luciferase activity was normalized to cell viability, which was assessed using the alamarBlue assay. The results are expressed as the fold change compared with the DMSO control, with the experiment conducted in biological triplicate. […]
# NFE2L1 pathway = experiment: 3×PSMA4-ARE-LUC dual luciferase reporter assay in HEK293 cells; settings: Homo sapiens; 5 μM, 16 h, HEK293, luminescence relative to DMSO-treated cells; read-out: NFE2L1 activation [5 μM]
# Text: In our previous work,[43] we developed a library of NFE2L1 stimulators using a cell-based luciferase reporter assay. This system was based on three tandem copies of the antioxidant response element (ARE) derived from the NFE2L1 target gene proteasome subunit alpha type-4 (3xPSMA4, PSMA4-ARE-LUC). It was designed to detect the proteasome “bounce-back” response induced by proteasome inhibitors such as MG132 or bortezomib.[22,43,45,46] The reporter assay was adapted to a 384-well format and used to evaluate a new set of RUN compounds designed around the structural framework of the RUN-47 activator. We focused on identifying compounds that increased the 3×PSMA4-ARE-LUC signal (Fig. 1A), while simultaneously assessing cytotoxicity (see the SI, Fig. S2). […] In contrast, thiourea- and urea-containing derivatives generally produced only weak to intermediate responses, rarely exceeding a fold change of 7.
# Fig. 1 (A) Targeted library screening of RUN compounds using the 3×PSMA4-ARE-LUC dual reporter assay in HEK293 cells. Cells were exposed to RUN compounds (5 μM) for 16 hours, and luciferase activity was measured. Data are presented as the mean ± SD from three independent experiments (n = 3). Results are shown as a fold change in luminescence relative to DMSO-treated cells. Selected hit compounds are highlighted in distinct colours. (B) RUN-89 specifically activates the NFE2L1 pathway. The DDI2 knockout (KO) and parental (WT) HCT116 cells were transfected with the 3×PSMA4-ARE-LUC reporter and treated with 0.5 μM bortezomib (BTZ) and 5 μM RUN-89 for 16 hours. Data are presented as the Geomean ± GeoSD of three independent experiments (n = 3). Statistical analysis was performed on log2-transformed values using two-way repeated-measures ANOVA followed by Šídak's multiple comparison test. (C) RUN-89 selectively triggers downstream signaling events associated with NFE2L1 gene expression. HEK293 cells were transfected with lipid nanoparticles (LNPs) carrying siRNAs targeting NFE2L1 or NFE2L2. LNPs formulated with non-targeting siRNA served as a negative control. Following 24 hours of incubation, cells were treated with 7.5 μM RUN-89 or DMSO (vehicle) for an additional 16 hours. Expression of the proteasomal subunit gene PSMC4 was then quantified by RT-qPCR. Data are shown as the Geomean ± GeoSD from three independent biological replicates (n = 3). Log2-transformed data were analyzed using two-way repeated-measures ANOVA with the Geisser–Greenhouse correction, followed by Tukey's multiple comparison test with individual variances computed for each comparison. Additional results for NFE2L1, NFE2L2, PSMB7, and PSMD12 are presented in SI Fig. S10.
# Figure S1: Concentration–response of luciferase cell-based assay (PSMA4-ARE-luc2P reporter) on treatment with RUN-81, RUN-89, and RUN-94. Concentration is plotted on the X-axis. Dose–response relationships were analyzed using a four-parameter logistic curve (4PL), or a bell-shaped dose-response curve, both with weighting 1/Y^2. Dotted lines represent 95% confidence bands. Calculated EC₅₀ values, curve parameters, and asymmetrical confidence intervals are summarized in the accompanying table . Data are presented as mean ± SD from four independent experiments (n=4).
# (§1) 2 Biology Experimental Procedures
# (§2) Safety statement: No unexpected or unusually high safety hazards were encountered. […]
# Most of the cell lines were cultured in Dulbecco's Modified Eagle Medium (DMEM) enriched with 10% fetal bovine serum (FBS) and 2 mM L-glutamine, under standard conditions of 37 °C with 5% CO₂. DNA transfection was performed with Lipofectamine 2000, following the manufacturer's instructions. Transgenic cells were then selected with either G418 (400 µg/mL) or hygromycin B (450 µg/mL), based on the selection marker encoded by the plasmid used. Cell viability was evaluated using the […]
# HEK293 cells = experiment: alamarBlue cytotoxicity assessment in HEK293 cells; settings: HEK293, alamarBlue, 16 h; concentration not given
# Procedure: Figure S2: Concentration-dependent cytotoxicity assessment of RUN compounds.
# HEK293 cells were treated for 16 hours with increasing concentrations of RUN compounds (1.25 µM; 2.5 µM; 5; 7.5 and 10 µM) or DMSO (negative control). Cell viability was determined using the alamarBlue assay following the protocol of Riss.(1) Data are presented as means ± SD from three independent experiments (n = 3). Statistical analysis was done using repeated measures one-way ANOVA with Geisser–Greenhouse correction, followed by Dunnett’s multiple comparisons test. *p<0.05. Detailed results of the analysis are shown in […]
# (1 picture or pasted object on this page, not shown here)
# as §1, §2
# Cell lines were sourced from the ATCC (USA) and/or ECACC (UK), namely HCT116 (human colorectal carcinoma), ATCC CCL-247 (RRID:CVCL_0291), HEK-293 (human embryonic kidney), ATCC CRL-1573 (RRID:CVCL_0045), SH-SY5Y (human neuroblastoma), ATCC CRL-2266 (RRID:CVCL_0019). The characteristics of DDI2 knockout cells derived from HCT116 cells have been described previously (Sedlacek et al., 2025). All cell lines were tested for mycoplasma contamination. Most of the cell lines were cultured in Dulbecco's Modified Eagle Medium (DMEM) enriched with 10% fetal bovine serum (FBS) and 2 mM L-glutamine, under standard conditions of 37 °C with 5% CO₂. DNA transfection was performed with Lipofectamine 2000, following the manufacturer's instructions. Transgenic cells were then selected with either G418 (400 µg/mL) or hygromycin B (450 µg/mL), based on the selection marker encoded by the plasmid used. […]
SMILES,fold induction at 5 µM (NFE2L1 pathway),Tox [% of ctrl.] (HEK293 cells),other results
CC(C)C[C@@H](C=O)NC(=O)[C@H](CC(C)C)NC(=O)[C@H](CC(C)C)NC(=O)OCc1ccccc1 [MG132] (Cbz-Leu-Leu-Leu-aldehyde),–,–,"Mean 2 (mean of log2-transformed values, treatment; DMSO = 0) (IRE1/XBP1s; 1 µM): 2.106; Mean 2 (mean of log2-transformed values, treatment; DMSO = 0) (IRE1/XBP1s; 5 µM): 2.725; Mean 2 (mean of log2-transformed values, treatment; DMSO = 0) (IRE1/XBP1s; 10 uM): 3.956; Mean diff, DMSO vs. treatment (log2-transformed values) (IRE1/XBP1s; DMSO vs. 1 µM): -2.106; Mean diff, DMSO vs. treatment (log2-transformed values) (IRE1/XBP1s; DMSO vs. 5 µM): -2.725; Mean diff, DMSO vs. treatment (log2-transformed values) (IRE1/XBP1s; DMSO vs. 10 uM): -3.956"
COc1ccc(/C=C2\CC(NC(=O)CN3CCOCC3)C/C(=C\c3ccc(OC)c(OC)c3)C2=O)cc1OC.O=C(O)C(F)(F)F (stereo not shown) [RUN-98],2.1,102% of ctrl.,–
COc1ccc(/C=C2\CC(NC(=O)Cn3ccnc3)C/C(=C\c3ccc(OC)c(OC)c3)C2=O)cc1OC (stereo not shown) [RUN-99],1.6,103% of ctrl.,–
COc1ccc(/C=C2\CC(NC(=O)CCCN)C/C(=C\c3ccc(OC)c(OC)c3)C2=O)cc1OC.O=C(O)C(F)(F)F (stereo not shown) [RUN-100],1.2,100% of ctrl.,–
COc1ccc(/C=C2\CC(NC(=O)CCN(C)C)C/C(=C\c3ccc(OC)c(OC)c3)C2=O)cc1OC (stereo not shown) [RUN-101],2,97% of ctrl.,–
CCN(CC)CC(=O)NC1C/C(=C\c2ccc(OC)c(OC)c2)C(=O)/C(=C/c2ccc(OC)c(OC)c2)C1 (stereo not shown) [RUN-102],1.3,96% of ctrl.,–
COc1ccc(/C=C2\CN(C(=O)C3CCCC3)C/C(=C\c3ccc(OC)c(OC)c3)C2=O)cc1OC [RUN-103],9.4,80% of ctrl.,–
COc1ccc(/C=C2\CC(NC(=O)CCN)C/C(=C\c3ccc(OC)c(OC)c3)C2=O)cc1OC (stereo not shown) [RUN-104],0.8,105% of ctrl.,–
COc1ccc(/C=C2\CN(C(=O)CN3CCN(C)CC3)C/C(=C\c3ccc(OC)c(OC)c3)C2=O)cc1OC [RUN-105],4.5,78% of ctrl.,–
COc1ccc(/C=C2\CN(C(=O)CCCN(C)C)C/C(=C\c3ccc(OC)c(OC)c3)C2=O)cc1OC.O=C(O)C(F)(F)F [RUN-106],2.8,75% of ctrl.,–
COc1ccc(/C=C2\CN(C(=O)c3ncccc3C)C/C(=C\c3ccc(OC)c(OC)c3)C2=O)cc1OC [RUN-107],5,73%* % of ctrl.,–
COc1ccc(/C=C2\CN(C(=O)c3ccccn3)C/C(=C\c3ccc(OC)c(OC)c3)C2=O)cc1OC [RUN-108],0.9,83% of ctrl.,–
COc1ccc(/C=C2\CN(C(=O)Cc3c[nH]cn3)C/C(=C\c3ccc(OC)c(OC)c3)C2=O)cc1OC [RUN-109],4.3,78% of ctrl.,–
COc1ccc(/C=C2\CN(C(=O)[C@@H]3CCC(=O)N3)C/C(=C\c3ccc(OC)c(OC)c3)C2=O)cc1OC [RUN-110],1.8,85% of ctrl.,–
COc1ccc(/C=C2\CN(C(=O)Cn3ccnc3)C/C(=C\c3ccc(OC)c(OC)c3)C2=O)cc1OC [RUN-111],2.7,78% of ctrl.,–
COc1ccc(/C=C2\CN(C(=O)CN3CCOCC3)C/C(=C\c3ccc(OC)c(OC)c3)C2=O)cc1OC.O=C(O)C(F)(F)F [RUN-112],6.6,81% of ctrl.,–
COc1ccc(/C=C2\CN(C(=O)C3CCCN3)C/C(=C\c3ccc(OC)c(OC)c3)C2=O)cc1OC (stereo not shown) [RUN-113],3.8,94% of ctrl.,–
COc1ccc(/C=C2\CN(C(=O)CCN(C)C)C/C(=C\c3ccc(OC)c(OC)c3)C2=O)cc1OC.O=C(O)C(F)(F)F [RUN-114],3.1,92% of ctrl.,–
COc1ccc(/C=C2\CN(C(=O)CCCN)C/C(=C\c3ccc(OC)c(OC)c3)C2=O)cc1OC [RUN-115],1.8,85% of ctrl.,–
CCN(CC)CC(=O)N1C/C(=C\c2ccc(OC)c(OC)c2)C(=O)/C(=C/c2ccc(OC)c(OC)c2)C1.O=C(O)C(F)(F)F [RUN-116],3.1,78% of ctrl.,–
COc1ccc(/C=C2\CN(C(=O)CCN)C/C(=C\c3ccc(OC)c(OC)c3)C2=O)cc1OC [RUN-117],1,83% of ctrl.,–
